Measurements reported in patent publication US12156920B2, “Double-labeled probe for molecular imaging and use thereof” (Deutsches Krebsforschungszentrum, priority 2017, dated 2024).
Where “and” joins values, the source holds several entries; their conditions need not be identical. Equal entries are not always repeated. Blank lines part the entries; values can stand above or below the compound they belong to.

Columns and labels:
[1] = test system: LNCaP-tumor bearing balb/c nu/nu mice; experiment: Biodistribution (organ distribution) of 68Ga-labeled compounds; format: in vivo; conditions: 68Ga labeled
Experimental: (§1) The precursor peptides [1 nmol in HEPES buffer (580 mg/ml), 90 μL] were added to 40 μL [^68Ga]Ga^3+ eluate (˜40 MBq). The pH was adjusted to 3.8 using 30% NaOH and 10% NaOH, respectively. The reaction mixture was incubated at 98° C. for 10 minutes. The radiochemical yield (RCY) was determined by HPLC. For the experimental tumor models 5×10^6 cells of LNCaP (in 50% Matrigel; Becton Dickinson, Heidelberg, Germany) were subcutaneously inoculated into the right trunk of 7- to 8-week-old male BALB/c nu/nu mice (Charles River). The tumors were allowed to grow until approximately 1 cm^3 in size. The ^68Ga-labeled compounds were injected into a tail vein (1-2 MBq; 60 pmol). […] Organs of interest were dissected, blotted dry, and weighed. The radioactivity was measured using a gamma counter and calculated as % ID/g. All animal experiments complied with the current laws of the Federal Republic of Germany.

PSMA = target: T1, PSMA (Homo sapiens, UniProt Q04609); experiment: Competitive cell binding assay on LNCaP cells (PSMA binding affinity); conditions: competition against 0.2 nM 68Ga-labeled PSMA-10
T1 construct: endogenous in cells; host or cells: LNCaP cells (ATCC CRL-1740)
Experimental: (§2) PSMA^+ LNCaP cells (ATCC CRL-1740) were cultured in RPMI medium supplemented with 10% fetal calf serum and 2 mmol/L L-glutamine (all from PAA). Cells were grown at 37° C. in humidified air with 5% CO2 and were harvested using trypsin-ethylenediaminetetraacetic acid (trypsin-EDTA; 0.25% trypsin, 0.02% EDTA, Invitrogen).
The competitive cell binding assay and internalization experiments were performed as described previously (4). Briefly, the cells (10^5 per well) were incubated with a 0.2 nM solution of ^68Ga-labeled radioligand [Glu-urea-Lys(Ahx)]2-HBED-CC (PSMA-10, precursor ordered from ABX, Radeberg, Germany) in the presence of 12 different concentrations of analyte (0-5000 nM, 100 μL/well). After incubation, the mixture was removed and the wells were washed 3 times with PBS using a multiscreen vacuum manifold (Millipore, Billerica, Mass.). Cell-bound radioactivity was measured using a gamma counter (Packard Cobra II, GMI, Minnesota, USA). The 50% inhibitory concentration (IC50) values were calculated by fitting the data using a nonlinear regression algorithm (GraphPad Software).

PSMA+ LNCaP cells = experiment: Internalization experiments (specific cell surface bound and internalized fractions); format: cell-based; conditions: 68Ga-labeled compound 30 nM, 45 min
Experimental: as §2
For internalization experiments, 10^5 cells per well were seeded in poly-L-lysine coated 24-well cell culture plates 24 h before incubation. After washing, the cells were incubated with 30 nM of the radiolabeled compound for 45 min at 37° C. and at 4° C., respectively. Cellular uptake was terminated by washing 3 times with 1 mL of ice-cold PBS. To remove surface-bound radioactivity, cells were incubated twice with 0.5 mL glycine-HCl in PBS (50 mM, pH=2.8) for 5 min. The cells were washed with 1 mL of ice-cold PBS and lysed using 0.3 N NaOH (0.5 mL). The surface-bound and the internalized fractions were measured in a gamma counter. The cell uptake was calculated as percent of the initially added radioactivity bound to 10^5 cells [% ID/10^5 cells].

[2] = Biodistribution (organ distribution) of 68Ga-labeled compounds; format: in vivo, mice; conditions: male, BALB/c nu/nu, mouse, in vivo, iv, 60 pmol, total radioactivity
Experimental: as §1

T1 sequence (Q04609 whole entry): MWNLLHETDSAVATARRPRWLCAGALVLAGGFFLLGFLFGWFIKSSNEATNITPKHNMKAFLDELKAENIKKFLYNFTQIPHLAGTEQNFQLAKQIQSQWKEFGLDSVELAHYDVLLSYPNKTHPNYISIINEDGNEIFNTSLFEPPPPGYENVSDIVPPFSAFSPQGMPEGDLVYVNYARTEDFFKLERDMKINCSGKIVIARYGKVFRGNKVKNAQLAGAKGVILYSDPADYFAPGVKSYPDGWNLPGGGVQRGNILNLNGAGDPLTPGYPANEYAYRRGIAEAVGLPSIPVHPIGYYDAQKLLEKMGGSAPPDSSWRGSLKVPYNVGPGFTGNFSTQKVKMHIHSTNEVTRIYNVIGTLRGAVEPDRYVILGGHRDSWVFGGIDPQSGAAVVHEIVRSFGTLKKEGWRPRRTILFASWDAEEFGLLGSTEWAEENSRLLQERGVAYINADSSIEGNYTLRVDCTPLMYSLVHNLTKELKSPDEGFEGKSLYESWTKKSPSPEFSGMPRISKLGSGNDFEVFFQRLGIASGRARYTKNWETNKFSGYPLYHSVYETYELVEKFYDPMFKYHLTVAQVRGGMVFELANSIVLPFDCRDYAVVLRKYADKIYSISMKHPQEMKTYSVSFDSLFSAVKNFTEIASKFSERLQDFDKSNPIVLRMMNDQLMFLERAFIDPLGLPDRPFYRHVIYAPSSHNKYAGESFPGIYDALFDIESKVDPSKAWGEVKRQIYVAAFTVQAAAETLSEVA

Organ distribution Liver [1]: 0.34 % ID/g | Organ distribution Lung [1]: 1.19 % ID/g | Tumor-to-Organ ratio T/Blood ([1]; 1 h p.i.): 9.23 | Tumor-to-Organ ratio T/Brain ([1]; 1 h p.i.): 12.23 | Tumor-to-Organ ratio T/Heart ([1]; 1 h p.i.): 5.89 | Tumor-to-Organ ratio T/Intestine ([1]; 1 h p.i.): 4.29 | Tumor-to-Organ ratio T/Kidney ([1]; 1 h p.i.): 0.04 | Tumor-to-Organ ratio T/Liver ([1]; 1 h p.i.): 3.42 | Tumor-to-Organ ratio T/Lung ([1]; 1 h p.i.): 2.07 | Tumor-to-Organ ratio T/Muscle ([1]; 1 h p.i.): 4.89 | Tumor-to-Organ ratio T/Spleen ([1]; 1 h p.i.): 0.27 | Organ distribution Tumor (tumor accumulation) ([1]; 1 h p.i., LNCaP tumor): 4.89±1.34 % ID/g and 4.89 % ID/g | Organ distribution Blood ([1]; 1 h p.i., tail vein): 0.53 % ID/g | Organ distribution Brain ([1]; 1 h p.i., tail vein): 0.40 % ID/g | Organ distribution Heart ([1]; 1 h p.i., tail vein): 0.83 % ID/g | Organ distribution Intestine ([1]; 1 h p.i., tail vein): 1.14 % ID/g | Organ distribution Kidney ([1]; 1 h p.i., tail vein): 139.44 % ID/g | Organ distribution Liver ([1]; 1 h p.i., tail vein): 1.43 % ID/g | Organ distribution Lung ([1]; 1 h p.i., tail vein): 2.36 % ID/g | Organ distribution Muscle ([1]; 1 h p.i., tail vein): 1.00 % ID/g | Organ distribution Spleen ([1]; 1 h p.i., tail vein): 17.88 % ID/g | Organ distribution Blood ([1]; 2 h p.i.): 0.32 % ID/g | Organ distribution Brain ([1]; 2 h p.i.): 0.23 % ID/g | Organ distribution Heart ([1]; 2 h p.i.): 0.31 % ID/g | Organ distribution Intestine ([1]; 2 h p.i.): 1.19 % ID/g | Organ distribution Kidney ([1]; 2 h p.i.): 129.73 % ID/g | Organ distribution Muscle ([1]; 2 h p.i.): 2.06 % ID/g | Organ distribution Spleen ([1]; 2 h p.i.): 12.41 % ID/g | Organ distribution Tumor ([1]; 2 h p.i., LNCaP tumor): 6.09 % ID/g | Ki (PSMA): 9.82 ± 1.26 nM
Structure (SMILES): O=C(O)CCc1ccc(O)c(CN(CCN(CC(=O)O)Cc2cc(CCC(=O)NCCCCCC(=O)NCCCCC(NC(=O)NC(CCC(=O)O)C(=O)O)C(=O)O)ccc2O)CC(=O)O)c1 (stereo not drawn) [PSMA-11, Glu-urea-Lys-(Ahx)-HBED-CC, reference compound]
Specific cell surface bound (PSMA+ LNCaP cells): 2.31 ± 0.61 % ID/10^5 cells | Specific internalized (PSMA+ LNCaP cells): 3.57 ± 0.51 % ID/10^5 cells

Structure (SMILES): CC1(C)C(/C=C/C2=C(Oc3ccc(S(=O)(=O)O)cc3)C(=C\C=C3/N(CCCCS(=O)(=O)O)c4ccc(S(=O)(=O)O)cc4C3(C)C)/CCC2)=[N+](CCCCCC(=O)NCCOCCOCCNC(=O)CCc2ccc(O)c(CN(CCN(CC(=O)O)Cc3cc(CCC(=O)NCc4cn(CCCCC(=O)NC(CCC(=O)O)C(=O)NC(Cc5c[nH]c6ccccc56)C(=O)NCCCCC(NC(=O)NC(CCC(=O)O)C(=O)O)C(=O)O)nn4)ccc3O)CC(=O)O)c2)c2ccc(S(=O)(=O)O)cc21 (stereo not drawn) [PSMA-(WE)1-HBED-CC-PEG2-IRDye800CW, Glu-urea-Lys-(WE)1-HBED-CC-PEG2-IRDye800CW]
tissue uptake at 1 h ([2]; Organ distribution Blood): 1.61 %ID/g | tissue uptake at 1 h ([2]; Organ distribution Brain): 0.15 %ID/g | tissue uptake at 1 h ([2]; Organ distribution Heart): 1.49 %ID/g | tissue uptake at 1 h ([2]; Organ distribution Intestine): 0.96 %ID/g | tissue uptake at 1 h ([2]; Organ distribution Kidney): 105 %ID/g | tissue uptake at 1 h ([2]; Organ distribution Liver): 1.73 %ID/g | tissue uptake at 1 h ([2]; Organ distribution Lung): 2.57 %ID/g | tissue uptake at 1 h ([2]; Organ distribution Muscle): 1 %ID/g | tissue uptake at 1 h ([2]; Organ distribution Spleen): 12.9 %ID/g | tissue uptake at 1 h ([2]; Organ distribution Tumor (tumor accumulation)): 3.85 %ID/g | tissue to tissue ratio at 1 h ([2]; Tumor-to-Organ ratio T/Blood): 2.39 | tissue to tissue ratio at 1 h ([2]; Tumor-to-Organ ratio T/Brain): 25.6 | tissue to tissue ratio at 1 h ([2]; Tumor-to-Organ ratio T/Heart): 2.59 | tissue to tissue ratio at 1 h ([2]; Tumor-to-Organ ratio T/Intestine): 4.01 | tissue to tissue ratio at 1 h ([2]; Tumor-to-Organ ratio T/Kidney): 0.04 | tissue to tissue ratio at 1 h ([2]; Tumor-to-Organ ratio T/Liver): 2.23 | tissue to tissue ratio at 1 h ([2]; Tumor-to-Organ ratio T/Lung): 1.5 | tissue to tissue ratio at 1 h ([2]; Tumor-to-Organ ratio T/Muscle): 3.86 | tissue to tissue ratio at 1 h ([2]; Tumor-to-Organ ratio T/Spleen): 0.3
